Data taken from patent US12397056B2, “System for inducing sonoporation of a drug into cancer cells and method thereof” (Freedom Waves S.R.L, priority 2018, dated 2025).
“Also recorded” adds a separate entry of the source.

Assays:
Assay type in all cases: cell-based
[1] = tested on: MDA-MB-231: estrogen independent human breast adenocarcinoma; test: Cell death of MDA-MB-231 cells after drug with or without pLINFU sonoporation
Experimental: (§1) The system of the present invention was tested in vitro using two cellular lines of human breast cancer and one cellular line of human pancreatic adenocarcinoma. In particular the following cellular lines were employed: • MCF-7: human breast ductal carcinoma; • MDA-MB-231: estrogen independent human breast adenocarcinoma; • MiaPaCa-2: human pancreatic adenocarcinoma.
(§2) For each combination the percentage of cell death was measured in three main experimental conditions: • administration of the drug (hereinafter named “NO-US” condition); • administration of the drug and simultaneous administration of non focalized pulsed low-intensity ultrasound with a frequency of 1 MHz and a period of 1 second, said drug being administered in a unique dose; • 1 administration of non focalized pulsed low-intensity ultrasound with a frequency of 1 MHz and a period of 1 second, followed by administration of the drug; and • administration of the drug and simultaneous administration of non focalized pulsed low-intensity ultrasound with a frequency of 1 MHz and a period of 1 second, said drug being administered in two doses of equal concentration (hereinafter termed “US-DC” condition).
(§3) All the experimental conditions, other than NO-US, were replicated for different values of duty cycle and each experimental condition were replicated for three different total concentrations of drugs. Several operation times were also tested for each cellular lines and for each type of drug.

[2] = tested on: MCF-7: human breast ductal carcinoma; test: Cell death of MCF-7 cells after drug with or without pLINFU sonoporation
Experimental: as §1, §2, §3

[3] = tested on: human pancreatic adenocarcinoma cells; test: Internalization of fluoresceinamine (FA) into cancer cells (FIG. 7, CLSM)
Description: This example is relative to an experiment of internalization of a fluoresceinamine (FA). […] The tested experimental condition are: • FA-NO-US-NO DRUG: administration of FA alone, without administration of any drug and without administration of ultrasounds; • FA-LI-NO-US: administration of FA and liposomal irinotecan (LI), without administration of ultrasounds; • US-DC=12%: administration of FA and liposomal irinotecan (LI), with the simultaneous administration of pLINFUs with a duty cycle of 12%; • US-PRE-DC=1%: administration of pLINFUs with a duty cycle of 1% followed by subsequent administration of FA and liposomal irinotecan (LI); and • US-DC=1%: administration of FA and liposomal irinotecan (LI), with the simultaneous administration of pLINFUs with a duty cycle of 1%.
In FIG. 7, it is graphically represented the FA Internalization (%), i.e. the percentage of FA measured after the removal of the […] liquid from the cell culture wells, i.e. the percentage of FA inside the cell. The results of the experiment of this example were also analyzed by Confocal Laser Scanning Microscopy (CLSM) after 2 hours of incubation. FIGS. 8a, 8b, 8c, 8d, 8e show the intake of the FA into human pancreatic adenocarcinoma cells, in the five aforementioned experimental conditions.
It can be explained with a greater chemical interaction between the polymeric chains of polyethylene glycol of the liposomal membrane and the FA.

[4] = tested on: MiaPaCa-2: human pancreatic adenocarcinoma; test: Cell death of MiaPaCa-2 cells after drug with or without pLINFU sonoporation; conditions: MiaPaCa2
Experimental: as §1, §2, §3

[5] = total concentration 100 μg/ml, NO-US (no ultrasound)
[6] = total concentration 100 μg/ml, US-DC = 9%
[7] = total concentration 100 μg/ml, US-DC = 9% (pLINFU 1 MHz, 20 s + 20 s)
[8] = total concentration 100 μg/ml, US-DC = 12%
[9] = total concentration 100 μg/ml, US-DC = 12% (pLINFU 1 MHz, 20 s + 20 s)
[10] = total concentration 500 μg/ml, NO-US (no ultrasound)
[11] = total concentration 500 μg/ml, US-DC = 9%
[12] = total concentration 500 μg/ml, US-DC = 9% (pLINFU 1 MHz, 20 s + 20 s)
[13] = total concentration 500 μg/ml, US-DC = 12%
[14] = total concentration 500 μg/ml, US-DC = 12% (pLINFU 1 MHz, 20 s + 20 s)
[15] = total concentration 1000 μg/ml, US-DC = 9%
[16] = total concentration 1000 μg/ml, US-DC = 9% (pLINFU 1 MHz, 20 s + 20 s)
[17] = total concentration 1000 μg/ml, US-DC = 12%
[18] = total concentration 0.5 μM, NO-US (no ultrasound)
[19] = total concentration 0.5 μM, US-DC = 9%
[20] = total concentration 0.5 μM, US-DC = 9% (pLINFU 1 MHz, 20 s + 20 s)
[21] = total concentration 0.5 μM, US-DC = 12%
[22] = total concentration 0.5 μM, US-DC = 12% (pLINFU 1 MHz, 20 s + 20 s)
[23] = total concentration 10 μM, NO-US (no ultrasound)
[24] = total concentration 10 μM, US-DC = 9%
[25] = total concentration 10 μM, US-DC = 9% (pLINFU 1 MHz, 20 s + 20 s)
[26] = total concentration 10 μM, US-DC = 12%
[27] = total concentration 10 μM, US-DC = 12% (pLINFU 1 MHz, 20 s + 20 s)
[28] = total concentration 50 μM, NO-US (no ultrasound)
[29] = total concentration 50 μM, US-DC = 9%
[30] = total concentration 50 μM, US-DC = 9% (pLINFU 1 MHz, 20 s + 20 s)
[31] = total concentration 50 μM, US-DC = 12%
[32] = total concentration 50 μM, US-DC = 12% (pLINFU 1 MHz, 20 s + 20 s)

COc1cccc2c1C(=O)c1c(O)c3c(c(O)c1C2=O)C[C@@](O)(C(=O)CO)C[C@@H]3O[C@H]1C[C@H](N)[C@H](O)[C@H](C)O1 [Doxorubicin]
Cell Death % [1, 5]: 10.9%
Increasing % vs NO-US [1, 6]: +116%
Cell Death % [1, 7]: 23.5%
Increasing % vs NO-US [1, 8]: +11.8%
Cell Death % [1, 9]: 12%
Cell Death % [1, 10]: 22.8%
Increasing % vs NO-US [1, 11]: +70.5%
Cell Death % [1, 12]: 38.8%
Increasing % vs NO-US [1, 13]: +18.4%
Cell Death % [1, 14]: 27%
Increasing % vs NO-US [1, 15]: +11.1%
Cell Death % [1, 16]: 60.5%
Increasing % vs NO-US [1, 17]: +0.3%
Cell Death % [2, 5]: 17.1%
Increasing % vs NO-US [2, 6]: +74.4%
Cell Death % [2, 7]: 29.8%
Increasing % vs NO-US [2, 8]: +64.9%
Cell Death % [2, 9]: 28.2%
Cell Death % [2, 10]: 23.3%
Increasing % vs NO-US [2, 11]: +102.5%
Cell Death % [2, 12]: 47.2%
Increasing % vs NO-US [2, 13]: +114.2%
Cell Death % [2, 14]: 49.9%
Cell Death % ([2]; total concentration 1000 μg/ml, NO-US (no ultrasound)): 59%
Increasing % vs NO-US [2, 15]: +19.7%
Cell Death % [2, 16]: 70.6%^
Increasing % vs NO-US [2, 17]: +39%
Cell Death % ([2]; total concentration 1000 μg/ml, US-DC = 12% (pLINFU 1 MHz, 20 s + 20 s)): 82%

Nc1ccc2c(c1)C(=O)OC21c2ccc(O)cc2Oc2cc(O)ccc21 [FA, fluoresceinamine]
intake of the FA into cells (CLSM) ([3]; FA-LI-NO-US: FA with liposomal irinotecan, no ultrasound, FIG. 8b): greater fluorescence density is observed, but only at an extracellular perimembrane level
intake of the FA into cells (CLSM) ([3]; FA-NO-US-NO DRUG: FA alone, no drug, no ultrasound, 2 hours incubation, FIG. 8a): not accumulated in the cells
FA Internalization (%) ([3]; US-DC=1% compared with the other four conditions, FIG. 7): higher FA internalization %
intake of the FA into cells (CLSM) ([3]; US-DC=1%: FA with liposomal irinotecan, simultaneous pLINFU duty cycle 1%, FIG. 8e): highest level of FA internalization
intake of the FA into cells (CLSM) ([3]; US-DC=12%: FA with liposomal irinotecan, simultaneous pLINFU duty cycle 12%, FIG. 8c): the presence of FA inside the cells became evident
intake of the FA into cells (CLSM) ([3]; US-PRE-DC=1%: pLINFU duty cycle 1% followed by FA and liposomal irinotecan, FIG. 8d): the presence of FA inside the cells became evident; also recorded: a certain grade of FA internalization is achieved

CCc1c2c(nc3ccc(OC(=O)N4CCC(N5CCCCC5)CC4)cc13)-c1cc3c(c(=O)n1C2)COC(=O)[C@]3(O)CC [Irinotecan]
Cell Death % ([4]; total concentration 0.05 μM, NO-US (no ultrasound)): 11.5%
Increasing % vs NO-US ([4]; total concentration 0.05 μM, US-DC = 1%): +120.8%
Cell Death % ([4]; total concentration 0.05 μM, US-DC = 1% (pLINFU 1 MHz, 20 s + 20 s)): 25.4%
Increasing % vs NO-US ([4]; total concentration 0.05 μM, US-DC = 12%): +60.6%
Cell Death % ([4]; total concentration 0.05 μM, US-DC = 12% (pLINFU 1 MHz, 20 s + 20 s)): 18.5%
Cell Death % ([4]; total concentration 1 μM, NO-US (no ultrasound)): 21.1%
Increasing % vs NO-US ([4]; total concentration 1 μM, US-DC = 1%): +62.9%
Cell Death % ([4]; total concentration 1 μM, US-DC = 1% (pLINFU 1 MHz, 20 s + 20 s)): 34.3%
Increasing % vs NO-US ([4]; total concentration 1 μM, US-DC = 12%): +42.5%
Cell Death % ([4]; total concentration 1 μM, US-DC = 12% (pLINFU 1 MHz, 20 s + 20 s)): 30%
Cell Death % ([4]; total concentration 50 μM (irinotecan series), NO-US (no ultrasound)): 56.7%
Increasing % vs NO-US ([4]; total concentration 50 μM (irinotecan series), US-DC = 1%): +31.1%
Cell Death % ([4]; total concentration 50 μM (irinotecan series), US-DC = 1% (pLINFU 1 MHz, 20 s + 20 s)): 74.3%
Increasing % vs NO-US ([4]; total concentration 50 μM (irinotecan series), US-DC = 12%): +16.5%
Cell Death % ([4]; total concentration 50 μM (irinotecan series), US-DC = 12% (pLINFU 1 MHz, 20 s + 20 s)): 66%

CC(=O)O[C@H]1C(=O)[C@@]2(C)[C@H]([C@H](OC(=O)c3ccccc3)[C@]3(O)C[C@H](OC(=O)[C@H](O)[C@@H](NC(=O)c4ccccc4)c4ccccc4)C(C)=C1C3(C)C)[C@]1(OC(C)=O)CO[C@@H]1C[C@@H]2O [Paclitaxel]
Cell Death % [1, 18]: 6.4%
Increasing % vs NO-US [1, 19]: +76.6%
Cell Death % [1, 20]: 11.3%
Increasing % vs NO-US [1, 21]: −7.8%
Cell Death % [1, 22]: 5.9%
Cell Death % [1, 23]: 6.4%
Increasing % vs NO-US [1, 24]: +128.4%
Cell Death % [1, 25]: 14.7%
Increasing % vs NO-US [1, 26]: +15%
Cell Death % [1, 27]: 7.4%
Cell Death % [1, 28]: 7.9%
Increasing % vs NO-US [1, 29]: +221.9%
Cell Death % [1, 30]: 25.5%
Increasing % vs NO-US [1, 31]: +55.3%
Cell Death % [1, 32]: 12.3%
Cell Death % [2, 18]: 1.0%
Increasing % vs NO-US [2, 19]: +807.5%
Cell Death % [2, 20]: 9.1%
Increasing % vs NO-US [2, 21]: +242.5%
Cell Death % [2, 22]: 3.4%
Cell Death % [2, 23]: 4.1%
Increasing % vs NO-US [2, 24]: +484.7%
Cell Death % [2, 25]: 24%
Increasing % vs NO-US [2, 26]: +221.6%
Cell Death % [2, 27]: 13.2%
Cell Death % [2, 28]: 7.2%
Increasing % vs NO-US [2, 29]: +354.2%
Cell Death % [2, 30]: 32.7%
Increasing % vs NO-US [2, 31]: +147.3%
Cell Death % [2, 32]: 17.8%
Cell Death % [4, 18]: 45.5%
Increasing % vs NO-US ([4]; total concentration 0.5 μM, US-DC = 1%): 40.1%
Cell Death % ([4]; total concentration 0.5 μM, US-DC = 1% (pLINFU 1 MHz, 20 s + 20 s)): 22.7%
Increasing % vs NO-US [4, 21]: 17.1%
Cell Death % [4, 22]: 12.7%
Cell Death % [4, 23]: 65.3%
Increasing % vs NO-US ([4]; total concentration 10 μM, US-DC = 1%): +22.7%
Cell Death % ([4]; total concentration 10 μM, US-DC = 1% (pLINFU 1 MHz, 20 s + 20 s)): 12.8%
Increasing % vs NO-US [4, 26]: +12.7%
Cell Death % [4, 27]: 9.2%
Cell Death % [4, 28]: 80.2%
Increasing % vs NO-US ([4]; total concentration 50 μM, US-DC = 1%): +12.8%
Cell Death % ([4]; total concentration 50 μM, US-DC = 1% (pLINFU 1 MHz, 20 s + 20 s)): 90.5%
Increasing % vs NO-US [4, 31]: +9.2%
Cell Death % [4, 32]: 87.6%
